From patent US8614188B2, “Inhibiting collagen-induced platelet aggregation and activation with peptide variants” (University of Massachusetts, priority 2006, dated 2013)

Key:
cells = test: Toxicity of DMSO to cells; format: cell-based
Method: (§1) The CP and CP-A peptides were noted to be hydrophobic and insoluble in aqueous solutions. A variety of solvents and carriers were tested to improve their solubility. Solvents and/or carriers that improve solubility of CP and CP-A included, but were not limited to, ethanol, dimethylsulphoxide (DMSO), dimethyl formamide (DMF), and trifluoracetic acid (TFA). When using DMSO as a solvent, the final concentration used in the platelet function experiments ranged from 0.063%-0.250%. DMSO concentrations greater than 1% were observed toxic to cells. Stock solutions of CP and CP-A were prepared in DMSO and used at a […] dilution.

platelets = test: Collagen-induced platelet activation, whole blood flow cytometry (P-Selectin, PAC-1); format: cell-based, human; conditions: for concentration-dependent effect on collagen-induced platelet activation: 50, 100 or 200 μM
Method: Peripheral blood was drawn from healthy, nonsmoking adult volunteers (IRB-approved written informed consent) who had not received any platelet inhibitory drugs in the preceding 2 weeks. After discarding the first 2 mL, blood was drawn into a 3.2% sodium citrate Vacutainer® (Becton Dickinson, Franklin Lakes. N.J., USA).
Flow cytometric analysis may be used to evaluate platelet function, and/or the assessment of platelet activation. Michelson, A. D., “Evaluation of platelet function by flow cytometry” Pathophysiol. Haemost. Thromb. 35:67-82 (2006). In the absence of an added exogenous platelet agonist, whole blood flow cytometry can determine the activation state of circulating platelets, as judged by the binding of an activation-dependent monoclonal antibody. In addition to this assessment of platelet function in vivo, inclusion of an exogenous agonist in the assay enables analysis of the reactivity of circulating platelets in vitro. In the latter application, whole blood flow cytometry is a physiological assay of platelet function in that an agonist results in a specific functional response by the platelets: a change in the surface expression of a physiological receptor (or other antigen or bound ligand), as determined by a change in the binding of a monoclonal antibody.
Markers of platelet activation include activation-dependent changes in the glycoprotein IIb/IIIa complex and exposure of granule membrane proteins. The platelet glycoprotein IIb/IIIa complex is believed involved with biochemical events leading to activation, and may express an activation dependent epitope recognized by monoclonal antibody PAC-1. Shattil et al., “Changes in the platelet membrane glycoprotein IIb/IIIa complex during platelet activation” J. Biol. Chem. 260:11107-11114 (1985). P-Selectin (GMP-140, PADGEM, CD-62P) is now known to be a component of the alpha-granule membrane and is therefore exposed on the surface of the platelet upon activation, due to the fusing of the vesicle with the outer membrane. These two markers of platelet activation were used to study the effect of peptide on collagen-induced platelet activation using whole blood flow cytometry.
The final concentration of a peptide used in incubation (i.e., for example, the GPVI CP) was 100 μM. The following antibodies (and appropriately matched isotype control antibodies) were used for flow cytometry analysis: fluorescein isothiocyanate (FITC)-conjugated PAC-1 monoclonal antibody which recognizes the activated conformation of glycoprotein (GP) IIb/IIIa; phycoerythrin (PE)-conjugated anti-CD62P monoclonal antibody directed against P-Selectin; and PECy7-conjugated anti-CD41 monoclonal antibody which recognizes the α-subunit of the CD41/CD61 complex (GPIIb-IIIa) (BD-Pharmingen, San-Diego, Calif., USA; and/or DAKO, Carpinteria, Calif., USA).
Prior to flow cytometric experiments, PE-conjugated anti-CD62P and anti-CD41 antibodies were mixed at a ratio of 1:2.5 (volume/volume) and diluted at a ratio of 1:9 (volume/volume) with 10 mmol/L HEPES, 0.15 mol/L NaCl, pH 7.4, containing 1% bovine serum albumin (BSA) and 15 mmol/L sodium azide. Collagen was purchased from Chronolog Corp (Havertown, Pa., USA). The stock 1 mg/mL collagen solution was diluted at a ratio of 1:10 (volume/volume) with 10 mmol/L HEPES, 0.15 mol/L NaCl, pH 7.4. Stock solutions of GPVI core peptide in DMSO (or pure DMSO as a “vehicle” control) were diluted at a ratio of 1:10 (volume/volume) with 10 mmol/L HEPES, 0.15 mol/L NaCl, pH 7.4, immediately before the addition of blood samples.
Flow cytometric analysis: aliquots of citrated whole blood were incubated at 37° C. for 60 min with vehicle (DMSO; in a final concentrations of 0.063, 0.125 or 0.250%) or a preliminarily diluted GPVI core peptide in a final concentration of 100 μM. Then, the aliquoted samples were stimulated with 20 μg/mL collagen for 5 minutes at 37° C. in the presence of monoclonal antibody FITC-PAC-1. […]

[1] = Solubility of peptides in aqueous solutions and solvents; format: physicochemical; conditions: solubility improved by ethanol, DMSO, DMF, TFA
Method: as §1

| Molecule | DMSO concentration observed toxic to cells (cells) | expression of the platelet activation markers as compared to vehicle control (platelets; 100 μM peptide, 20 μg/mL collagen) | collagen-mediated platelet activation, percentage of P-Selectin-positive platelets (platelets; 100 μM, FIG. 8A) | collagen-mediated platelet activation, P-Selectin mean fluorescence surface expression intensity (platelets; 100 μM, FIG. 8B) | collagen-mediated platelet activation, PAC-1 mean fluorescence surface expression intensity (platelets; 100 μM, FIG. 8C) | solubility in aqueous solutions [1] | reduction in the expression of the platelet activation markers compared to vehicle control (platelets; 100 μM peptide, whole blood preincubated 60 min 37° C., 20 μg/mL collagen, % P-Selectin-positive platelets, P-Selectin and PAC-1 MFI) | concentration-dependent effect on collagen-induced platelet activation (platelets; % P-Selectin-positive platelets, P-Selectin and PAC-1 MFI, listed as GPVI core peptide) | concentration-dependent effect on collagen-induced platelet activation (platelets; % P-Selectin-positive platelets, P-Selectin and PAC-1 MFI, listed as GPVI-CP) | inhibition of platelet activation (platelets; Examples 4 and 5) |
| --- | --- | --- | --- | --- | --- | --- | --- | --- | --- | --- |
| C[S+](C)[O-] [DMSO, dimethylsulphoxide] | greater than 1% |  |  |  |  |  |  |  |  |  |
| H-GNLVAICLGAV-OH [CP-A, NH2-Gly-Asn-Leu-Val-Ala-Ile-Cys-Leu-Gly-Ala-Val-OH, reference compound] |  | did not lead to any significant differences | absence of effect | absence of effect | absence of effect | insoluble |  |  |  |  |
| H-GNLVRICLGAV-OH [Peptide 2, NH2-Gly-Asn-Leu-Val-Arg-Ile-Cys-Leu-Gly-Ala-Val-OH] |  |  |  |  |  | insoluble | 32%-59% | inhibited platelet activation in a concentration-dependent manner | concentration-dependent effect | 30-60% |
